In ChEMBL document CHEMBL1201862, “PubChem BioAssay data set” (2004):
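All cell lines were grown in 96-well plates and treated with compound for 48 hours. GI50 = concentration required for 50% inhibition of growth.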 Active and inactive are the calls of the source. No stated cut-off is given here; in the data, active = GI50 up to about 1.1 µM and inactive = higher.

How the values were obtained:
Test in all cases: inhibition of tumour cell growth, NCI panel, 48 h
[1] = system: A498
[2] = system: A549
[3] = system: CAKI-1
[4] = system: CCRF-CEM
[5] = system: COLO 205
[6] = system: HCT-116
[7] = system: HL-60
[8] = system: HOP-62
[9] = system: LOX IMVI
[10] = system: M14
[11] = system: MCF7
[12] = system: MDA-MB-435
[13] = system: NCI-H23
[14] = system: NCI/ADR-RES
[15] = system: OVCAR-3
[16] = system: OVCAR-8
[17] = system: RXF 393
[18] = system: SR
[19] = system: U-251
[20] = system: SNB-75

SMILES | GI50 [1] | GI50 [2] | GI50 [3] | GI50 [4] | GI50 [5] | GI50 [6] | GI50 [7] | GI50 [8] | GI50 [9] | GI50 [10] | GI50 [11] | GI50 [12] | GI50 [13] | GI50 [14] | GI50 [15] | GI50 [16] | GI50 [17] | GI50 [18] | GI50 [19] | GI50 [20]
CCCCCCCCCCCCCCCCOCC(O)CO (centres undefined) | 19.5 µM (inactive) | 20.1 µM (inactive) | 17.6 µM (inactive) | 11.1 µM (inactive) | 22.1 µM (inactive) | 19.4 µM (inactive) | 7.18 µM (inactive) | 19.6 µM (inactive) | 17.8 µM (inactive) | 22.8 µM (inactive) | 22.2 µM (inactive) | 17.4 µM (inactive) | 17.9 µM (inactive) | 16.7 µM (inactive) | 20.7 µM (inactive) | 17.9 µM (inactive) | 16.2 µM (inactive) | 10.3 µM (inactive) | 19 µM (inactive) | –
CCN(CC)C(=S)N/N=C(\C)c1cccc(C)n1 | 0.183 µM (active) | 0.259 µM (active) | 0.31 µM (active) | < 0.01 µM (active) | < 0.01 µM (active) | < 0.01 µM (active) | < 0.01 µM (active) | 0.102 µM (active) | < 0.01 µM (active) | < 0.041 µM (active) | < 0.01 µM (active) | 0.377 µM (active) | – | < 0.01 µM (active) | < 0.01 µM (active) | 0.287 µM (active) | 0.568 µM (active) | < 0.0182 µM (active) | < 0.0431 µM (active) | 4.11 µM (inactive)
CC1C/C(=C\c2ccc(O)c(O)c2)C(=O)/C(=C/c2ccc(O)c(O)c2)C1 (centres undefined) | 3.18 µM (inactive) | 13.4 µM (inactive) | 5.74 µM (inactive) | 3.06 µM (inactive) | 16.9 µM (inactive) | 6.67 µM (inactive) | 4.93 µM (inactive) | 11.3 µM (inactive) | 7.06 µM (inactive) | – | 3.11 µM (inactive) | 2.83 µM (inactive) | 4.14 µM (inactive) | 18.5 µM (inactive) | 5.25 µM (inactive) | 9.04 µM (inactive) | 3.73 µM (inactive) | 3.82 µM (inactive) | 5.51 µM (inactive) | 4.73 µM (inactive)
S=C(NCc1ccccn1)N/N=C/c1ccccn1 | < 0.0113 µM (active) | < 0.0188 µM (active) | < 0.01 µM (active) | < 0.01 µM (active) | < 0.01 µM (active) | < 0.01 µM (active) | < 0.01 µM (active) | < 0.01 µM (active) | < 0.0167 µM (active) | < 0.01 µM (active) | < 0.01 µM (active) | 0.207 µM (active) | < 0.01 µM (active) | < 0.01 µM (active) | < 0.01 µM (active) | < 0.032 µM (active) | < 0.0378 µM (active) | < 0.01 µM (active) | – | 3.05 µM (inactive)
CC(=O)c1cc(I)c(O)c2ncccc12 | 2.85 µM (inactive) | 4.34 µM (inactive) | 3.08 µM (inactive) | 2.07 µM (inactive) | 3.11 µM (inactive) | 2.94 µM (inactive) | 2.03 µM (inactive) | 4.36 µM (inactive) | 3.85 µM (inactive) | 1.97 µM (inactive) | 4.73 µM (inactive) | 4.09 µM (inactive) | 3.13 µM (inactive) | 4.35 µM (inactive) | 3.21 µM (inactive) | 2.92 µM (inactive) | 3.92 µM (inactive) | 2.91 µM (inactive) | 3.97 µM (inactive) | –
Cc1oc(N)c(S(=O)(=O)c2cc3ccccc3[n+]([O-])c2N)c1C | > 100 µM (inactive) | > 100 µM (inactive) | > 100 µM (inactive) | – | > 100 µM (inactive) | – | – | > 100 µM (inactive) | > 100 µM (inactive) | > 100 µM (inactive) | > 100 µM (inactive) | > 100 µM (inactive) | > 100 µM (inactive) | > 100 µM (inactive) | > 100 µM (inactive) | > 100 µM (inactive) | – | < 0.01 µM (active) | > 100 µM (inactive) | > 100 µM (inactive)
Cc1cc(-n2c(/C=C/c3ccc(Cl)cc3)nc3cc(Cl)ccc3c2=O)on1 | 2.31 µM (inactive) | 14.1 µM (inactive) | > 50 µM (inactive) | > 50 µM (inactive) | 18.9 µM (inactive) | 6.1 µM (inactive) | > 50 µM (inactive) | 7.62 µM (inactive) | 15.1 µM (inactive) | 12.7 µM (inactive) | 18.9 µM (inactive) | 14.2 µM (inactive) | 41.4 µM (inactive) | 14.4 µM (inactive) | 10.1 µM (inactive) | 10.6 µM (inactive) | – | 0.005 µM (active) | 6.4 µM (inactive) | –
CCSc1ncnc2c(C3OC(CO)C(O)C3O)nsc12 (centres undefined) | > 100 µM (inactive) | > 100 µM (inactive) | > 100 µM (inactive) | > 100 µM (inactive) | > 100 µM (inactive) | > 100 µM (inactive) | > 100 µM (inactive) | > 100 µM (inactive) | > 100 µM (inactive) | > 100 µM (inactive) | > 100 µM (inactive) | > 100 µM (inactive) | – | > 100 µM (inactive) | > 100 µM (inactive) | > 100 µM (inactive) | > 100 µM (inactive) | > 100 µM (inactive) | > 100 µM (inactive) | > 100 µM (inactive)
CC1CCC2(CC1)NC1=C(CC(C)CC1)C1=C2CC(C)CC1 (centres undefined) | 34 µM (inactive) | 36.8 µM (inactive) | 22 µM (inactive) | 18.1 µM (inactive) | 20.4 µM (inactive) | 14.8 µM (inactive) | 14.4 µM (inactive) | – | 18.3 µM (inactive) | 18.5 µM (inactive) | 17.6 µM (inactive) | > 10 µM (inactive) | 20.8 µM (inactive) | > 10 µM (inactive) | 17.6 µM (inactive) | 23 µM (inactive) | 15.8 µM (inactive) | 21.8 µM (inactive) | 18.4 µM (inactive) | 19.1 µM (inactive)
CC(=O)O[C@H]1[C@H](OC(=O)CC(C)(O)CC(=O)O)C[C@]2(C)C3=C(CCC2C1(C)C)[C@]1(C)CC[C@H]([C@H]2CC[C@H](C(C)(C)O)OC2O)[C@@]1(C)[C@@H](O)C3 (some centres undefined) | 12.9 µM (inactive) | 32.4 µM (inactive) | 16.9 µM (inactive) | 22 µM (inactive) | – | 20.7 µM (inactive) | 17.7 µM (inactive) | 16.3 µM (inactive) | 18.5 µM (inactive) | 17.8 µM (inactive) | 24 µM (inactive) | 19.1 µM (inactive) | 16.6 µM (inactive) | > 100 µM (inactive) | 16.1 µM (inactive) | 18.7 µM (inactive) | – | 25.6 µM (inactive) | 19.8 µM (inactive) | –
Cc1cc(NC2=NCCO2)c2c(c1C)CCCC2 | 13.6 µM (inactive) | 29.6 µM (inactive) | – | 19 µM (inactive) | 17.1 µM (inactive) | 15.2 µM (inactive) | 10.6 µM (inactive) | 13.3 µM (inactive) | – | 11.1 µM (inactive) | 14.8 µM (inactive) | 14.4 µM (inactive) | 18 µM (inactive) | 18.1 µM (inactive) | – | 25.4 µM (inactive) | 39.3 µM (inactive) | 18.5 µM (inactive) | 18.5 µM (inactive) | 19.2 µM (inactive)
[N-]=[N+]=NCc1nc(N)c2c3c(sc2n1)CCCC3 | 10.9 µM (inactive) | 3.27 µM (inactive) | 1.56 µM (inactive) | – | 3.78 µM (inactive) | 2.52 µM (inactive) | – | 3.72 µM (inactive) | 0.272 µM (active) | 3.46 µM (inactive) | 2.19 µM (inactive) | 4.25 µM (inactive) | 1.3 µM (inactive) | 1.99 µM (inactive) | 2.75 µM (inactive) | 1.51 µM (inactive) | 5.4 µM (inactive) | 4.99 µM (inactive) | 2.47 µM (inactive) | 7.69 µM (inactive)
CN1COCc2c1ccc1cc3ccc4c(c3nc21)COCN4S(C)(=O)=O | > 100 µM (inactive) | > 100 µM (inactive) | > 100 µM (inactive) | > 100 µM (inactive) | > 100 µM (inactive) | > 100 µM (inactive) | – | > 100 µM (inactive) | > 100 µM (inactive) | > 100 µM (inactive) | 0.202 µM (active) | > 100 µM (inactive) | > 100 µM (inactive) | > 100 µM (inactive) | > 100 µM (inactive) | > 100 µM (inactive) | > 100 µM (inactive) | 3.73 µM (inactive) | > 100 µM (inactive) | 20 µM (inactive)
CCCCN=C(OC1C=CCCC1)SC (centres undefined) | 51.8 µM (inactive) | > 100 µM (inactive) | – | > 100 µM (inactive) | > 100 µM (inactive) | > 100 µM (inactive) | > 100 µM (inactive) | > 100 µM (inactive) | – | > 100 µM (inactive) | > 100 µM (inactive) | > 100 µM (inactive) | > 100 µM (inactive) | > 100 µM (inactive) | > 100 µM (inactive) | > 100 µM (inactive) | – | > 100 µM (inactive) | > 100 µM (inactive) | 51.9 µM (inactive)
CN(C)c1nc2sc3c(c2c(=O)o1)CCCC3 | 16 µM (inactive) | 29.2 µM (inactive) | 35.3 µM (inactive) | 39.4 µM (inactive) | 23.6 µM (inactive) | 44.9 µM (inactive) | 27 µM (inactive) | 25.6 µM (inactive) | 52 µM (inactive) | 40.1 µM (inactive) | 48.3 µM (inactive) | 31.5 µM (inactive) | 46.3 µM (inactive) | 43 µM (inactive) | – | 31.8 µM (inactive) | 15.5 µM (inactive) | 65.2 µM (inactive) | 32.7 µM (inactive) | 30.1 µM (inactive)
